Data from ChEMBL document CHEMBL5143608, “Peptide-based long-acting co-agonists of GLP-1 and cholecystokinin 1 receptors as novel anti-diabesity agents” (Eur J Med Chem, 2022).
The source made the active and inactive calls. The rule behind the calls is not given here.

Key:
[1] = Half life in Sprague-Dawley rat at 25 nmol/kg, sc by LC-MS/MS analysis; type: ADME, organism-based; details: in vivo
Mus musculus [2] = assay: Hypoglycemic activity in ICR mouse assessed as improvement in glucose tolerance at 25 nmol/kg, ip administered 30 min before oral glucose administration and measured upto 120 mins by OGTT; type: functional, organism-based
Mus musculus [3] = assay: Insulinotropic activity in db/db mouse assessed as elevation of plasma insulin level at 25 nmol/kg, ip administered 30 min before oral glucose administration and measured upto 60 mins by ELISA; type: functional, organism-based; details: time <= 90.0 min
Mus musculus [4] = assay: Anti-diabesity activity in DIO C57BL/6 mouse assessed as reduction in cumulative food intake at 100 nmol/kg, sc administered once daily for 7 days; type: functional, organism-based; details: time 7.0 day
[5] = Renal toxicity in DIO C57BL/6 mouse assessed as creatinine level in serum at 100 nmol/kg, sc administered once daily for 7 days; type: organism-based; details: in vivo, 168 h, time 7 day
[6] = Pancreatic insult activity in DIO C57BL/6 mouse assessed as increase in lipase level in plasma at 100 nmol/kg, sc administered once daily for 7 days; type: toxicity, organism-based; details: in vivo, 168 h, time 7 day
Mus musculus [7] = assay: Anti-diabesity activity against DIO C57BL/6 mouse assessed as reduction in cholesterol level in serum at 25 nmol/kg, sc administered every 2 days for 3 weeks; type: functional, organism-based; details: time 21.0 day
Mus musculus [8] = assay: Anti-diabesity activity against db/db mouse assessed as reduction in cumulative food intake at 25 nmol/kg, sc administered every 2 days for 3 weeks; type: functional, organism-based; details: time 21.0 day
Mus musculus [9] = assay: Anti-diabesity activity against db/db mouse assessed as enhanced islets insulin content at 25 nmol/kg, sc administered every 2 days for 3 weeks by immunohistochemistry staining; type: functional, organism-based; details: time 21.0 day
Mus musculus [10] = assay: Anti-diabesity activity in DIO C57BL/6 mouse assessed as reduction in body weight at 100 nmol/kg, sc administered every 2 days for 10 days; type: functional; details: C57BL/6, 240 h, time 10 day
[11] = Renal toxicity in db/db mouse assessed as creatinine level in serum at 100 nmol/kg, sc administered once daily for 7 days; type: organism-based; details: in vivo, 168 h, time 7 day
[12] = Hepatotoxicity in db/db mouse assessed as aspartate aminotransferase level in plasma at 100 nmol/kg, sc administered once daily for 7 days; type: toxicity, organism-based; details: in vivo, 168 h, time 7 day
Mus musculus [13] = assay: Anti-diabesity activity against DIO C57BL/6 mouse assessed as reduction in leptin level in plasma at 25 nmol/kg, sc administered every 2 days for 3 weeks by ELISA; type: functional, organism-based; details: time 21.0 day
Mus musculus [14] = assay: Anti-diabesity activity against db/db mouse assessed as HbA1c level at 25 nmol/kg, sc administered every 2 days for 3 weeks; type: functional, organism-based; details: time 21.0 day
Mus musculus [15] = assay: Anti-diabesity activity against db/db mouse assessed as reduction in HbA1c level at 25 nmol/kg, sc administered every 2 days for 6 weeks followed by saline treatment for 6 weeks and measured during first 6 weeks; type: functional, organism-based
[16] = Hepatotoxicity in db/db mouse assessed as alanine aminotransferase level in plasma at 25 nmol/kg, sc administered every 2 days for 12 weeks; type: toxicity, organism-based; details: in vivo, 2016 h
[17] = Renal toxicity in db/db mouse assessed as creatinine level in serum at 25 nmol/kg, sc administered every 2 days for 12 weeks; type: organism-based; details: in vivo, 2016 h
[18] = Pancreatic insult activity in db/db mouse assessed as increase in lipase level in serum at 25 nmol/kg, sc administered every 2 days for 12 weeks; type: toxicity, organism-based; details: in vivo, 2016 h
[19] = molecular target: T1, Glucagon-like peptide 1 receptor (Homo sapiens, UniProt P43220); assay: Agonist activity at human GLP-1R expressed in HEK293 cells assessed as cAMP release incubated for 20 min by HTRF analysis; type: functional, cell-based; details: hek293
[20] = molecular target: T1, Glucagon-like peptide 1 receptor; assay: Agonist activity at human GLP-1R expressed in CHO cells assessed as cAMP release incubated for 20 min by HTRF analysis; type: functional, cell-based

T1 sequence (P43220 whole entry): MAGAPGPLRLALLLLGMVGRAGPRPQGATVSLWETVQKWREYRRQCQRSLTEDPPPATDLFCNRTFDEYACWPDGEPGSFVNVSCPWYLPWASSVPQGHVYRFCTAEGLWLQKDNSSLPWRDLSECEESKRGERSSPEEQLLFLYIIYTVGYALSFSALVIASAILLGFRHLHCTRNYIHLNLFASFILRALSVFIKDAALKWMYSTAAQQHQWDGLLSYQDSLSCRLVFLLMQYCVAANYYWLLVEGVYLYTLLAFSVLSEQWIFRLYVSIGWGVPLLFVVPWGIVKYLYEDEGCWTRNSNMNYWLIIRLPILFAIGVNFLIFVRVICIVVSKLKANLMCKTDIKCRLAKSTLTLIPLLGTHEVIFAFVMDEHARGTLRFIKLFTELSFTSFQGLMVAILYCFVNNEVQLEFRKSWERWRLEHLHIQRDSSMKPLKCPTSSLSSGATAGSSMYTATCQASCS

Compound	half-life [1] [h]	Activity (Mus musculus [2])	Activity (Mus musculus [3])	Activity (Mus musculus [4])	Activity [5]	Activity [6]	Activity (Mus musculus [7])	Activity (Mus musculus [8])	Activity (Mus musculus [9])	inhibition in vivo at 0.1 µmol/kg (Mus musculus [10]) [%]	Activity [11]	Activity [12]	Activity (Mus musculus [13])	Activity (Mus musculus [14])	Activity (Mus musculus [15])	Activity [16]	Activity [17]	Activity [18]	EC50 [19] [nM]	EC50 [20] [nM]
CCCC[C@H](NC(=O)[C@H](Cc1ccc(CS(=O)(=O)O)cc1)NC(=O)[C@H](CC(=O)O)NC(=O)COCCOCCNC(=O)COCCOCCNC(=O)[C@H](CCCNC(=N)N)NC(=O)CNC(=O)[C@H](CCCCN)NC(=O)[C@@H](NC(=O)[C@H](CC(C)C)NC(=O)[C@H](Cc1c[nH]c2ccccc12)NC(=O)[C@H](C)NC(=O)[C@@H](NC(=O)[C@H](Cc1ccccc1)NC(=O)[C@H](CCC(=O)O)NC(=O)[C@H](CCCCNC(=O)COCCOCCNC(=O)COCCOCCNC(=O)CC[C@H](NC(=O)CCCCCCCCCCCCCCCCC(=O)O)C(=O)O)NC(=O)[C@H](C)NC(=O)[C@H](C)NC(=O)[C@H](CCC(N)=O)NC(=O)CNC(=O)[C@H](CCC(=O)O)NC(=O)[C@H](CC(C)C)NC(=O)[C@H](Cc1ccc(O)cc1)NC(=O)[C@H](CO)NC(=O)[C@H](CO)NC(=O)[C@@H](NC(=O)[C@H](CC(=O)O)NC(=O)[C@H](CO)NC(=O)[C@@H](NC(=O)[C@H](Cc1ccccc1)NC(=O)[C@@H](NC(=O)CNC(=O)[C@H](CCC(=O)O)NC(=O)[C@H](C)NC(=O)[C@@H](N)Cc1cnc[nH]1)[C@@H](C)O)[C@@H](C)O)C(C)C)[C@@H](C)CC)C(C)C)C(=O)NCC(=O)N[C@@H](Cc1c[nH]c2ccccc12)C(=O)N[C@@H](CCCC)C(=O)N(C)[C@H](CC(=O)O)C(=O)N(C)[C@@H](Cc1ccccc1)C(N)=O	9.2	Active	Active	Active	Non-Toxic	Non-Toxic	Active	Active	Active	27.1	Non-Toxic	Non-Toxic	Active	Active	Active	Non-Toxic	Non-Toxic	Toxic	–	–
CCCC[C@H](NC(=O)[C@H](Cc1ccc(CS(=O)(=O)O)cc1)NC(=O)[C@H](CC(=O)O)NC(=O)COCCOCCNC(=O)COCCOCCNC(=O)[C@H](CCCCN)NC(=O)CNC(=O)[C@H](CCCCN)NC(=O)[C@@H](NC(=O)[C@H](CC(C)C)NC(=O)[C@H](Cc1c[nH]c2ccccc12)NC(=O)[C@H](CCC(=O)O)NC(=O)[C@@H](NC(=O)[C@H](Cc1ccccc1)NC(=O)[C@H](CCC(=O)O)NC(=O)[C@H](CCCCNC(=O)COCCOCCNC(=O)COCCOCCNC(=O)CC[C@H](NC(=O)CCCCCCCCCCCCCCCCC(=O)O)C(=O)O)NC(=O)[C@H](C)NC(=O)[C@H](C)NC(=O)[C@H](CCC(=O)O)NC(=O)[C@H](CCC(=O)O)NC(=O)[C@H](CCC(=O)O)NC(=O)[C@H](CC(C)C)NC(=O)[C@@H](NC(=O)[C@H](CCC(=O)O)NC(=O)[C@@H](NC(=O)[C@@H](NC(=O)[C@H](CC(=O)O)NC(=O)[C@H](CC(N)=O)NC(=O)[C@@H](NC(=O)[C@H](Cc1ccc(O)cc1)NC(=O)[C@@H](NC(=O)CNC(=O)[C@H](CCC(=O)O)NC(=O)C(C)(C)NC(=O)[C@@H](N)Cc1cnc[nH]1)[C@@H](C)O)[C@@H](C)O)C(C)C)[C@@H](C)O)[C@@H](C)O)[C@@H](C)CC)[C@@H](C)CC)C(=O)NCC(=O)N[C@@H](Cc1c[nH]c2ccccc12)C(=O)N[C@@H](CCCC)C(=O)N(C)[C@H](CC(=O)O)C(=O)N(C)[C@@H](Cc1ccccc1)C(N)=O	16.8	–	Active	Active	Non-Toxic	Non-Toxic	Active	Active	Active	30.6	Non-Toxic	Non-Toxic	Active	Active	Active	Non-Toxic	Non-Toxic	Toxic	0.074	0.057
